# Active and inactive are the calls of the source. The calls are words filed in the database; no cut-off is given here.
# Legend:
# Prothrombin [1] = biological target: T1, Prothrombin (Homo sapiens, UniProt P00734); assay: Inhibition of thrombin (unknown origin) up to 150 to 350 uM using N-benzoyl-Phe-Val-Arg-p-nitroanilide hydrochloride as substrate pretreated for 5 mins followed by substrate addition measured after 30 mins by colorimetric method
# Prothrombin [2] = biological target: T1, Prothrombin; assay: Inhibition of thrombin (unknown origin) using N-benzoyl-Phe-Val-Arg-p-nitroanilide hydrochloride as substrate pretreated for 5 mins followed by substrate addition measured after 30 mins by colorimetric method
# Carboxypeptidase A1 = biological target: T2, Carboxypeptidase A1 (Bos taurus, UniProt P00730); assay: Inhibition of bovine pancreas carboxypeptidase A using N-4-(methoxyphenylazoformyl)-Phe-OH as substrate measured after 5 mins by colorimetric method
# T2 sequence (P00730 whole entry): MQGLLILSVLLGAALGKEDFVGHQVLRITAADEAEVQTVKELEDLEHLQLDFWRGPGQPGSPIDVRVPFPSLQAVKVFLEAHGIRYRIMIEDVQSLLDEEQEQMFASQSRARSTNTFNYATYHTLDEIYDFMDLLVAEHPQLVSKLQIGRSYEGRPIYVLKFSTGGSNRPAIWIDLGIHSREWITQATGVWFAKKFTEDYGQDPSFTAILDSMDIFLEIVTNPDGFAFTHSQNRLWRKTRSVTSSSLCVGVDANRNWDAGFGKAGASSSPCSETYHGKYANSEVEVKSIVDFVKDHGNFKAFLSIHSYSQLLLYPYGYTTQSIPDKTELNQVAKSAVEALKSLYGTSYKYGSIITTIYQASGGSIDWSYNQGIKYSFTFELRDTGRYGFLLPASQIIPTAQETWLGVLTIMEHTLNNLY
# [3] = biological target: T3, Chymotrypsin-C (Homo sapiens) (UniProt Q99895); assay: Inhibition of human pancreas chymotrypsin C up to 0.78 mM using N-succinyl-Ala-Ala-Pro-Phe p-nitroanilide as substrate pretreated for 5 mins followed by substrate addition measured after 30 mins by colorimetric method
# T3 sequence (whole entry): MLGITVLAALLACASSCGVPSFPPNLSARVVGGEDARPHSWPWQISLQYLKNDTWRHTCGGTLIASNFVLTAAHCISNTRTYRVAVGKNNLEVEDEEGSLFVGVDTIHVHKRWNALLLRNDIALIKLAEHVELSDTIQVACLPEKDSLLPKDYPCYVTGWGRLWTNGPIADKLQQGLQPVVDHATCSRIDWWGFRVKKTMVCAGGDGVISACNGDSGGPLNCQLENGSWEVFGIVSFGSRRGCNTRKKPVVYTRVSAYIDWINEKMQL
Compound,inhibition (Prothrombin [1]),IC50 (Prothrombin [2]),IC50 (Carboxypeptidase A1),inhibition [3]
CC1C[C@@H](C(=O)N[C@@H](CO)CCCNC(=N)N)N(C(=O)[C@@H](Cc2ccc(O)cc2)NC(=O)C(O)CCc2ccc(O)cc2)C1 (stereo partly drawn),inactive,–,–,–
CC1C[C@@H](C(=O)N[C@H](CO)CCCNC(=N)N)N(C(=O)[C@@H](Cc2ccc(O)cc2)NC(=O)C(O)CCc2ccc(O)cc2)C1 (stereo partly drawn),inactive,–,–,–
N=C(N)NCCC[C@H](CO)NC(=O)[C@@H]1CCCN1C(=O)[C@@H](Cc1ccc(O)cc1)NC(=O)C(O)CCc1ccc(O)cc1 (stereo partly drawn),–,250 µM,–,–
N=C(N)NCCC[C@@H](CO)NC(=O)[C@@H]1CCCN1C(=O)[C@@H](Cc1ccc(O)cc1)NC(=O)C(O)CCc1ccc(O)cc1 (stereo partly drawn),–,250 µM,–,–
CC[C@@H](C)[C@H](NC(=O)N[C@@H]1CCCCNC(=O)[C@H](CCc2ccc(O)cc2)NC(=O)[C@H]([C@H](C)CC)NC1=O)C(=O)O,–,–,0.75 µM,inactive
CC[C@@H](C)[C@H](NC(=O)N[C@@H]1CCCCNC(=O)[C@H](CCc2ccc(O)cc2)NC(=O)[C@H](C(C)C)NC1=O)C(=O)O,–,–,2 µM,inactive
